Here are results for 9 compounds from ChEMBL document CHEMBL5226286, “The application of isatin-based multicomponent-reactions in the quest for new bioactive and druglike molecules” (Eur J Med Chem, 2021).

Converted amounts (≈) assume the structure as drawn.

In test [1] the test system is Mycobacterium tuberculosis variant bovis. Put plainly: Antimycobacterial activity against dormant stage of Mycobacterium bovis BCG ATCC 35743 assessed as minimum inhibitory concentration by NR assay. Format: functional.
The test system is the same in test [2]. Description: Antimycobacterial activity against active stage of Mycobacterium bovis BCG ATCC 35743 assessed as minimum inhibitory concentration by NR assay. Format: functional.

Turning to `Cc1cc2c(c(=O)o1)C1(C(=O)N(Cc3cn(Cc4ccc(Cl)cc4)nn3)c3ccc(Br)cc31)C(C#N)=C(N)O2` (stereo not drawn), the results for the MIC in test [1] and in test [2] were 3.97 µg/mL (≈ 6.55 µM) and 4.12 µg/mL (≈ 6.8 µM), respectively.

For `CO[C@H]1/C=C/O[C@@]2(C)Oc3c(C)c(O)c4c(O)c(c(/C=N/N5CCN(C)CC5)c(O)c4c3C2=O)NC(=O)/C(C)=C\C=C\[C@H](C)[C@H](O)[C@@H](C)[C@@H](O)[C@@H](C)[C@H](OC(C)=O)[C@@H]1C` [RIFAMPIN], the MIC in test [1] amounted to 0.81 µg/mL (≈ 0.984 µM); in test [2], 0.45 µg/mL (≈ 0.547 µM).

Consider `Cc1ccc(Cn2cc(CN3C(=O)C4(C(C#N)=C(N)Oc5cc(C)oc(=O)c54)c4cc(Cl)ccc43)nn2)cc1` (stereo not drawn), for which the MIC in test [1] came to 5.23 µg/mL (≈ 9.67 µM); in test [2], 5.24 µg/mL (≈ 9.69 µM).

Regarding `CC1(C)CC(=O)C2=C(C1)OC(N)=C(C#N)C21C(=O)N(Cc2cn(Cc3ccc(Cl)cc3)nn2)c2ccc(Cl)cc21` (stereo not drawn), the minimal inhibitory concentration (MIC) in test [1] was determined as 3.09 µg/mL (≈ 5.37 µM); in test [2] it was 2.87 µg/mL (≈ 4.99 µM).

With `Cc1ccc(Cn2cc(CN3C(=O)C4(C(C#N)=C(N)OC5=C4C(=O)CC(C)(C)C5)c4cc(Br)ccc43)nn2)cc1` (stereo not drawn), the minimum inhibitory concentration (MIC) in test [1] is 6.23 µg/mL (≈ 10.4 µM); in test [2], 2.87 µg/mL (≈ 4.79 µM).

Turning to `Cc1cc2c(c(=O)o1)C1(C(=O)N(Cc3cn(Cc4ccc(Cl)cc4)nn3)c3ccccc31)C(C#N)=C(N)O2` (stereo not drawn), the minimum inhibitory concentration (MIC) in test [1] is 4.35 µg/mL (≈ 8.26 µM); in test [2], 2.97 µg/mL (≈ 5.64 µM).

On to `Cc1ccc(Cn2cc(CN3C(=O)C4(C(C#N)=C(N)Oc5cc(C)oc(=O)c54)c4ccccc43)nn2)cc1` (stereo not drawn), for which the results for the MIC in test [1] and in test [2] were 5.36 µg/mL (≈ 10.6 µM) and 7.42 µg/mL (≈ 14.6 µM), respectively.

Turning to `Cc1cc2c(c(=O)o1)C1(C(=O)N(Cc3cn(Cc4ccc(Cl)cc4)nn3)c3ccc(Cl)cc31)C(C#N)=C(N)O2` (stereo not drawn), the MIC in test [1] was found to be 7.73 µg/mL (≈ 13.8 µM); in test [2], 3.04 µg/mL (≈ 5.42 µM).

For the compound `CC1(C)CC(=O)C2=C(C1)OC(N)=C(C#N)C21C(=O)N(Cc2cn(Cc3ccc(Cl)cc3)nn2)c2ccc(Br)cc21` (stereo not drawn), the minimum inhibitory concentration (MIC) worked out at 3.16 µg/mL (≈ 5.1 µM) in test [1] and 4.32 µg/mL (≈ 6.97 µM) in test [2].
